Measured values as given in ChEMBL document CHEMBL1156304, “Pyridinyl aminohydantoins as small molecule BACE1 inhibitors” (Bioorg Med Chem Lett, 2010).

Tests used:
[1] = biological target: Beta-secretase 1 (Homo sapiens, UniProt P56817); assay: Inhibition of BACE1 by FRET assay
[2] = biological target: T1, Beta-secretase 2 (Homo sapiens, UniProt Q9Y5Z0); assay: Inhibition of BACE2 by FRET assay
T1 sequence (Q9Y5Z0 whole entry): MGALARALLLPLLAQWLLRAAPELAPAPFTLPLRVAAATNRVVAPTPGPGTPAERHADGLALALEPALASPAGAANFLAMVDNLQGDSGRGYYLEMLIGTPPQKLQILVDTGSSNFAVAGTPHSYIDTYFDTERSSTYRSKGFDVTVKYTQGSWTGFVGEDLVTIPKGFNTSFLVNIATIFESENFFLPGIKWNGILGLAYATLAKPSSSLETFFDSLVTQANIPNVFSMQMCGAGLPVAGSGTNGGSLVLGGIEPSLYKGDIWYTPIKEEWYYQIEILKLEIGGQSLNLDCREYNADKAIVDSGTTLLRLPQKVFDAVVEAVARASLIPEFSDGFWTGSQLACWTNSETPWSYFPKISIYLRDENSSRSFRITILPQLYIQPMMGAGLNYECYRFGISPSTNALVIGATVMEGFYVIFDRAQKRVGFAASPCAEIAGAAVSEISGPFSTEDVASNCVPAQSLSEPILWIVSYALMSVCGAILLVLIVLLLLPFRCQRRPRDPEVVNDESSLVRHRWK

[3] = Selectivity ratio of IC50 for BACE2 to IC50 for BACE1
[4] = biological target: Cathepsin D (Homo sapiens, UniProt P07339); assay: Inhibition of cathepsin D by FRET assay
Chain of Cathepsin D (P07339 65-162 limits assumed): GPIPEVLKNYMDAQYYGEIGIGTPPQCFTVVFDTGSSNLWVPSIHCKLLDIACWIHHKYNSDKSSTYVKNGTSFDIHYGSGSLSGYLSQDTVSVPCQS
Chain of Cathepsin D (P07339 169-412 limits assumed): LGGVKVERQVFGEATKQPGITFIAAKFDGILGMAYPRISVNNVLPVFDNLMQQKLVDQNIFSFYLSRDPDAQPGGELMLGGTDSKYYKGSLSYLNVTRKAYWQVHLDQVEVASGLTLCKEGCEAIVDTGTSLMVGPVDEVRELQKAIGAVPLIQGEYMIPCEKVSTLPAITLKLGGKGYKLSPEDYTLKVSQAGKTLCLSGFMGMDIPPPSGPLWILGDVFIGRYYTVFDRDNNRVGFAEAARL

Chain of Beta-secretase 1 (P56817 whole entry): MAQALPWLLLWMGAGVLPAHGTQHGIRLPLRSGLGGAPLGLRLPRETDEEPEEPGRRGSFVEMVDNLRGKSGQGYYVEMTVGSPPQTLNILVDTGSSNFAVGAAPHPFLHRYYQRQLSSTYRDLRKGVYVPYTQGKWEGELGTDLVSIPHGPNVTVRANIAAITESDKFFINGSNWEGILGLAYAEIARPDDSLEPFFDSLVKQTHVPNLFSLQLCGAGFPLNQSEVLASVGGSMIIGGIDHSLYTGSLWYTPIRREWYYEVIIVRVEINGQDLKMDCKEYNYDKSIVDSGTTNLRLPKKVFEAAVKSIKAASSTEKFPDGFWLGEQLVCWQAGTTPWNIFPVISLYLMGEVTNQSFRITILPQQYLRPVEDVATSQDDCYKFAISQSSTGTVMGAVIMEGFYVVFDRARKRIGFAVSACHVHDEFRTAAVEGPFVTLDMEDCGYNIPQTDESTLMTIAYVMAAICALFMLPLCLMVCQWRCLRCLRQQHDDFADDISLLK

Structure (SMILES) | IC50 [1] | IC50 [2] | Ratio IC50 [3] | IC50 [4]
CN1C(=O)C(c2ccncc2)(c2cccc(-c3cccnc3)c2)N=C1N (configuration not stated) | – | – | 8 | –
CN1C(=O)C(c2ccncc2)(c2cccc(-c3cccc(F)c3F)c2)N=C1N (configuration not stated) | 40 nM | 130 nM | 3.3 | 13100 nM
CN1C(=O)C(c2ccncc2)(c2cccc(-c3cc(F)ccc3F)c2)N=C1N (racemic) | – | 120 nM | – | 9400 nM
CN1C(=O)[C@@](c2ccncc2)(c2cccc(-c3cc(F)ccc3F)c2)N=C1N | – | 100 nM | – | 5500 nM
CN1C(=O)[C@](c2ccncc2)(c2cccc(-c3cc(F)ccc3F)c2)N=C1N | – | 700 nM | – | 26400 nM
CN1C(=O)C(c2ccncc2)(c2cccc(-c3ccoc3)c2)N=C1N (configuration not stated) | – | 570 nM | – | 46800 nM
CN1C(=O)C(c2ccccc2)(c2ccncc2)N=C1N (configuration not stated) | – | – | 0.8 | –
CN1C(=O)C(c2ccncc2)(c2cccc(-c3cccc(OC(F)(F)F)c3)c2)N=C1N (configuration not stated) | 250 nM | 140 nM | 0.6 | 14100 nM
CN1C(=O)C(c2ccncc2)(c2cccc(-c3ccsc3)c2)N=C1N (configuration not stated) | – | 190 nM | – | 31600 nM
CN1C(=O)C(c2ccncc2)(c2cccc(-c3ccccc3)c2)N=C1N (configuration not stated) | – | – | 1.1 | –

Further molecules by falling IC50 [2], results first:

IC50 [1] | IC50 [2] | Ratio IC50 [3] | IC50 [4] | Structure (SMILES)
– | 1010 nM | – | – | CN1C(=O)C(c2ccncc2)(c2cccc(-c3cnccn3)c2)N=C1N (configuration not stated)
30 nM | 1000 nM | 33 | 17400 nM | CN1C(=O)C(c2ccncc2)(c2cccc(-c3cccnc3F)c2)N=C1N (configuration not stated)
50 nM | 80 nM | 1.6 | 20800 nM | CN1C(=O)C(c2ccncc2)(c2cccc(-c3cccc(F)c3)c2)N=C1N (configuration not stated)
60 nM | 60 nM | 1 | 34100 nM | CN1C(=O)C(c2ccncc2)(c2cccc(-c3cc(F)cc(F)c3)c2)N=C1N (configuration not stated)
40 nM | 40 nM | 1 | 24200 nM | CN1C(=O)C(c2ccncc2)(c2cccc(-c3cccc(C#N)c3)c2)N=C1N (configuration not stated)
30 nM | 20 nM | 0.7 | 12200 nM | COc1cccc(-c2cccc(C3(c4ccncc4)N=C(N)N(C)C3=O)c2)c1 (configuration not stated)
